The subject of experiment [1] is Kibdelosporangium philippinensis (cultures A80407 and A80407.4). The experiment can be described thus: Resistance to antibiotics of the producing cultures, antibiotic sensitivity discs on seeded ISP No. 2 agar. The note with it: 10 units; both cultures.
The test system is the same in experiment [2]. Briefly: Lysozyme resistance of the producing cultures. The note with it: both cultures. It is filed as cell-based. From the text: Methods recommended by Gordon et.al. [R. E. Gordon, D. A. Barnett, J. E. Handerhan, and C. H. Pang, "Nocardia coeliaca, Nocardia autotrophica, and the Nocardin Strain," Int. J. Syst. Bacteriol. 24, (1), 54-63 (1974)] were followed for the majority of physiological tests.

Bridge positions count the residues as written; N and C are the ends. Square brackets hold non-standard residues; d marks the D form. Peptide text beside a SMILES is read from it. * marks the point of attachment. Ileψ(thiazoline)Cys = CC[C@H](C)[C@H](N)C1=N[C@H](C(=O)*)CS1; dOrn = NCCC[C@@H](N)C(=O)O

For the compound `CC[C@H](C)[C@H](N)C1=N[C@H](C(=O)N[C@@H](CC(C)C)C(=O)N[C@H](CCC(=O)O)C(=O)N[C@H](C(=O)N[C@H]2CCCCNC(=O)[C@H](CC(N)=O)NC(=O)[C@@H](CC(=O)O)NC(=O)[C@H](Cc3cnc[nH]3)NC(=O)[C@@H](Cc3ccccc3)NC(=O)[C@H]([C@@H](C)CC)NC(=O)[C@@H](CCCN)NC2=O)[C@@H](C)CC)CS1` [bacitracin] ({Ileψ(thiazoline)Cys}-L[dE]IK[dOrn]I[dF]H[dD]N; lactam 4-C), the Resistance to antibiotics result in experiment [1] is “sensitive”.
As to lysozyme, the Resistance to lysozyme entry in experiment [2] was “Neither culture was resistant”.

(Values after patent publication US5213797A, “A80407 antibiotics” (Eli Lilly and Company, priority 1990, dated 1993).)
